Where “and” joins values, the source holds several entries; their conditions need not be identical. Equal values may be shown once. Toxic doses and inconclusive results are not listed.
System: P388 leukemia ip, CD2F1 mice, survival T/C
Experiment: NCI In Vivo Anticancer Drug Screen. Data for tumor model P388 Leukemia (intraperitoneal) in CD2F1 (CDF1) mice
Conditions: endpoint: median survival time, higher = longer survival
In short: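 Mice carrying the transplanted tumor received test compound or vehicle. Survival was recorded in each group, and the value is the treated-group measurement divided by that of the vehicle-treated control group.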

[1] = dose: 50.0 mg/kg/injection, schedule: Q01DX009 (ip), vehicle: saline with Tween-80
[2] = dose: 100.0 mg/kg/injection, schedule: Q01DX009 (ip), vehicle: saline with Tween-80
[3] = dose: 60.0 mg/kg/injection, schedule: Q01DX005 (ip), vehicle: saline with Tween-80
[4] = dose: 120.0 mg/kg/injection, schedule: Q01DX005 (ip), vehicle: saline with Tween-80
[5] = dose: 240.0 mg/kg/injection, schedule: Q01DX005 (ip), vehicle: saline with Tween-80
[6] = dose: 50.0 mg/kg/injection, schedule: Q01DX009 (ip), vehicle: saline
[7] = dose: 200.0 mg/kg/injection, schedule: Q01DX009 (ip), vehicle: saline
[8] = dose: 100.0 mg/kg/injection, schedule: Q04DX002 (ip), vehicle: saline
[9] = dose: 50.0 mg/kg/injection, schedule: Q01DX005 (ip), vehicle: saline with Tween-80
[10] = dose: 100.0 mg/kg/injection, schedule: Q01DX005 (ip), vehicle: saline with Tween-80
[11] = dose: 12.5 mg/kg/injection, schedule: Q01DX009 (ip), vehicle: saline
[12] = dose: 25.0 mg/kg/injection, schedule: Q01DX009 (ip), vehicle: saline

CC1=CC(=O)[C@@H](O)[C@]2(C)[C@H]3[C@@]4(O)OC[C@]35[C@H]([C@@H](C)[C@H]4O)[C@@H](OC(=O)CC(C)C)C(=O)O[C@@H]5C[C@@H]12
T/C (dose: 0.5 mg/kg/injection, schedule: Q01DX005 (ip), vehicle: saline + alcohol): 104 % of control and 122 % of control | T/C (dose: 1.0 mg/kg/injection, schedule: Q01DX005 (ip), vehicle: saline + alcohol): 112 % of control

COc1ccc(C2(c3ccc(OC)cc3)N=C(n3nc(C)cc3C)NC2=O)cc1
T/C (dose: 50.0 mg/kg/injection, schedule: Q04DX002 (ip), vehicle: saline with Tween-80): 94 % of control | T/C (dose: 100.0 mg/kg/injection, schedule: Q04DX002 (ip), vehicle: saline with Tween-80): 98 % of control | T/C (dose: 200.0 mg/kg/injection, schedule: Q04DX002 (ip), vehicle: saline with Tween-80): 94 % of control

CC1(/C=C/c2ccccc2)OCCO1
T/C [1]: 99 % of control | T/C [2]: 98 % of control | T/C (dose: 200.0 mg/kg/injection, schedule: Q01DX009 (ip), vehicle: saline with Tween-80): 102 % of control

Cc1cc2[nH]c3c(C#N)c(OC(=O)N(C)C)c(-c4ccccc4)c(=O)n3c2cc1C
T/C [3]: 97 % of control | T/C [4]: 90 % of control | T/C [5]: 92 % of control

NNC(=O)C1CC2CCCCC2CC1O (stereo unspecified)
T/C (dose: 100.0 mg/kg/injection, schedule: Q04DX002 (ip), vehicle: Klucel (hydroxypropylcellulose) (HPC)): 101 % of control | T/C (dose: 200.0 mg/kg/injection, schedule: Q04DX002 (ip), vehicle: Klucel (hydroxypropylcellulose) (HPC)): 99 % of control | T/C (dose: 400.0 mg/kg/injection, schedule: Q04DX002 (ip), vehicle: Klucel (hydroxypropylcellulose) (HPC)): 108 % of control

Cc1cc(O)c([N+](=O)[O-])c(O)c1
T/C [6]: 96 % of control | T/C (dose: 100.0 mg/kg/injection, schedule: Q01DX009 (ip), vehicle: saline): 103 % of control | T/C [7]: 100 % of control

CCOC(=O)CCC(=O)Oc1ccc2c(c1)C(=O)c1ccc(OC(=O)CCC(=O)OCC)cc1C2=O
T/C (dose: 1.87 mg/kg/injection, schedule: Q01DX005 (ip), vehicle: Klucel (hydroxypropylcellulose) (HPC)): 99 % of control | T/C (dose: 3.75 mg/kg/injection, schedule: Q01DX005 (ip), vehicle: Klucel (hydroxypropylcellulose) (HPC)): 99 % of control | T/C (dose: 7.5 mg/kg/injection, schedule: Q01DX005 (ip), vehicle: Klucel (hydroxypropylcellulose) (HPC)): 99 % of control and 91 % of control

O=C(CC1=NC2NN(c3ccccc3)C(=O)C2=C1CC(=O)c1ccc([N+](=O)[O-])cc1)c1ccc([N+](=O)[O-])cc1 (stereo unspecified)
T/C [3]: 99 % of control | T/C [4]: 105 % of control | T/C [5]: 104 % of control

[N-]=[N+]=NCC(O)COc1c2ccccc2nc2ccccc12 (stereo unspecified)
T/C (dose: 15.0 mg/kg/injection, schedule: Q01DX005 (ip), vehicle: saline with Tween-80): 95 % of control | T/C (dose: 30.0 mg/kg/injection, schedule: Q01DX005 (ip), vehicle: saline with Tween-80): 99 % of control | T/C [3]: 112 % of control

CC(N)C12CC3CC(CC(C3)C1)C2 (stereo unspecified)
T/C (dose: 25.0 mg/kg/injection, schedule: Q04DX002 (ip), vehicle: saline): 108 % of control | T/C (dose: 50.0 mg/kg/injection, schedule: Q04DX002 (ip), vehicle: saline): 100 % of control | T/C [8]: 100 % of control | T/C (dose: 100.0 mg/kg/injection, schedule: Q04DX002 (ip), vehicle: suspension in saline): 101 % of control

C[n+]1ccccc1-c1ccc[n+](CCCCC[n+]2cccc(-c3cccc[n+]3C)c2)c1
T/C (dose: 50.0 mg/kg/injection, schedule: Q01DX005 (ip), vehicle: saline): 100 % of control and 104 % of control | T/C (dose: 100.0 mg/kg/injection, schedule: Q01DX005 (ip), vehicle: saline): 99 % of control and 104 % of control | T/C (dose: 200.0 mg/kg/injection, schedule: Q01DX005 (ip), vehicle: saline): 107 % of control

COC(=O)[C@@]12OC[C@]34[C@H]([C@@H](O)[C@@H]1O)[C@@]1(C)CC(=O)C(OC(=O)CC(=O)OC5=C(C)[C@@H]6C[C@H]7OC(=O)[C@H](OC(=O)/C=C(\C)C(C)C)[C@H]8[C@]9(C(=O)OC)OC[C@]78[C@H]([C@@H](O)[C@@H]9O)[C@@]6(C)CC5=O)=C(C)[C@@H]1C[C@H]3OC(=O)[C@H](OC(=O)/C=C(\C)C(C)C)[C@@H]24
T/C (dose: 0.19 mg/kg/injection, schedule: Q01DX009 (ip), vehicle: saline + Tween-80 + alcohol): 121 % of control | T/C (dose: 0.37 mg/kg/injection, schedule: Q01DX005 (ip), vehicle: saline + Tween-80 + alcohol): 119 % of control | T/C (dose: 0.38 mg/kg/injection, schedule: Q01DX005 (ip), vehicle: saline + Tween-80 + alcohol): 110 % of control | T/C (dose: 0.38 mg/kg/injection, schedule: Q01DX009 (ip), vehicle: saline + Tween-80 + alcohol): 120 % of control | T/C (dose: 0.75 mg/kg/injection, schedule: Q01DX005 (ip), vehicle: saline + Tween-80 + alcohol): 114 % of control | T/C (dose: 0.75 mg/kg/injection, schedule: Q01DX009 (ip), vehicle: saline + Tween-80 + alcohol): 124 % of control | T/C (dose: 1.5 mg/kg/injection, schedule: Q01DX009 (ip), vehicle: saline + Tween-80 + alcohol): 165 % of control | T/C (dose: 3.0 mg/kg/injection, schedule: Q01DX009 (ip), vehicle: saline + Tween-80 + alcohol): 163 % of control

CC(=O)Oc1cc2c(C)c3ccccc3cc2c2ccccc12
T/C (dose: 75.0 mg/kg/injection, schedule: Q01DX001 (ip), vehicle: Klucel (hydroxypropylcellulose) (HPC)): 102 % of control | T/C (dose: 150.0 mg/kg/injection, schedule: Q01DX001 (ip), vehicle: Klucel (hydroxypropylcellulose) (HPC)): 102 % of control | T/C (dose: 300.0 mg/kg/injection, schedule: Q01DX001 (ip), vehicle: Klucel (hydroxypropylcellulose) (HPC)): 100 % of control

CC(C)CNCC(=O)Nc1ccc(Cc2ccc(NC(=O)CNCC(C)C)cc2)cc1
T/C [9]: 102 % of control | T/C [10]: 97 % of control

CCCCCCCCCCCC[N+]1([O-])CCCCCC1
T/C [11]: 100 % of control | T/C [12]: 100 % of control | T/C [6]: 107 % of control and 94 % of control

NS(=O)(=O)c1ccc(N=NC2C(=O)N(C(=O)CC(=O)Nc3ccc(C(=O)O)cc3)N=C2c2ccccc2)cc1 (stereo unspecified)
T/C [9]: 97 % of control | T/C [10]: 92 % of control | T/C (dose: 200.0 mg/kg/injection, schedule: Q01DX005 (ip), vehicle: saline with Tween-80): 90 % of control

CN(C)c1ccc(/C=C/c2ccc3ccccc3n2)cc1
T/C (dose: 25.0 mg/kg/injection, schedule: Q01DX009 (ip), vehicle: saline with Tween-80): 95 % of control | T/C [1]: 100 % of control | T/C [2]: 100 % of control | T/C (dose: 100.0 mg/kg/injection, schedule: Q04DX003 (ip), vehicle: saline with Tween-80): 100 % of control

CCCCCC1([N+](=O)[O-])CN(C)CC2CCCCN2C1 (stereo unspecified)
T/C [8]: 102 % of control | T/C (dose: 200.0 mg/kg/injection, schedule: Q04DX002 (ip), vehicle: saline): 102 % of control

CC1(C)CC([P+](c2ccccc2)(c2ccccc2)c2ccccc2)=NN1
T/C (dose: 0.78 mg/kg/injection, schedule: Q01DX009 (ip), vehicle: saline with Tween-80): 115 % of control and 119 % of control | T/C (dose: 12.5 mg/kg/injection, schedule: Q01DX001 (ip), vehicle: saline): 123 % of control | T/C (dose: 12.5 mg/kg/injection, schedule: Q01DX009 (ip), vehicle: saline with Tween-80): 100 % of control | T/C (dose: 25.0 mg/kg/injection, schedule: Q01DX001 (ip), vehicle: saline): 122 % of control

O=C(NO)C(O)C(O)C(O)C(O)CO (stereo unspecified)
T/C [11]: 93 % of control | T/C [12]: 91 % of control | T/C [6]: 98 % of control and 97 % of control | T/C [7]: 86 % of control

CN1CCc2cc3c(c4c2C1C(O)c1ccccc1-4)OCO3 (stereo unspecified)
T/C (dose: 0.12 mg/kg/injection, schedule: Q01DX009 (ip), vehicle: acid diluted with saline): 109 % of control | T/C (dose: 0.25 mg/kg/injection, schedule: Q01DX009 (ip), vehicle: acid diluted with saline): 97 % of control | T/C (dose: 2.0 mg/kg/injection, schedule: Q01DX009 (ip), vehicle: acid diluted with saline): 92 % of control | T/C (dose: 4.0 mg/kg/injection, schedule: Q01DX009 (ip), vehicle: acid diluted with saline): 108 % of control

O=C1CCC(O)N1CN1C(=O)CCC1O (stereo unspecified)
T/C (dose: 60.0 mg/kg/injection, schedule: Q01DX005 (ip), vehicle: saline): 100 % of control | T/C (dose: 120.0 mg/kg/injection, schedule: Q01DX005 (ip), vehicle: saline): 108 % of control | T/C (dose: 240.0 mg/kg/injection, schedule: Q01DX005 (ip), vehicle: saline): 100 % of control

CN1CC(O)c2cc(N=NC(N)=O)c(O)cc21 (stereo unspecified)
T/C (dose: 50.0 mg/kg/injection, schedule: Q01DX005 (ip), vehicle: Klucel (hydroxypropylcellulose) (HPC)): 96 % of control | T/C (dose: 100.0 mg/kg/injection, schedule: Q01DX005 (ip), vehicle: Klucel (hydroxypropylcellulose) (HPC)): 91 % of control | T/C (dose: 200.0 mg/kg/injection, schedule: Q01DX005 (ip), vehicle: Klucel (hydroxypropylcellulose) (HPC)): 108 % of control

From PubChem BioAssay AID330 (DTP/NCI, 2004)
